From PubChem BioAssay (NCI)
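Dose response: 5 concentrations. Exposure: 48 h. Format: 96-well plates. Endpoint: linear interpolation; highest concentration if not reached. Here, GI50 denotes the concentration required for 50% inhibition of growth. TGI denotes the concentration required for complete inhibition of growth.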

Columns and labels:
Assay in all cases: NCI anticancer screen, dose series, 48 h
786-0 renal = test system: 786-0 renal
HCT-116 colon = test system: HCT-116 colon
HCT-15 colon = test system: HCT-15 colon
NCI/ADR-RES ovarian = test system: NCI/ADR-RES ovarian
SF-539 CNS = test system: SF-539 CNS
SK-MEL-5 melanoma = test system: SK-MEL-5 melanoma
SN12C renal = test system: SN12C renal
SNB-75 CNS = test system: SNB-75 CNS
UACC-62 melanoma = test system: UACC-62 melanoma
SR leukemia = test system: SR leukemia

SMILES | GI50 (786-0 renal) [µM] | TGI (786-0 renal) [µM] | GI50 (HCT-116 colon) [µM] | TGI (HCT-116 colon) [µM] | GI50 (HCT-15 colon) [µM] | TGI (HCT-15 colon) [µM] | GI50 (NCI/ADR-RES ovarian) [µM] | TGI (NCI/ADR-RES ovarian) [µM] | GI50 (SF-539 CNS) [µM] | TGI (SF-539 CNS) [µM] | GI50 (SK-MEL-5 melanoma) [µM] | TGI (SK-MEL-5 melanoma) [µM] | GI50 (SN12C renal) [µM] | TGI (SN12C renal) [µM] | GI50 (SNB-75 CNS) [µM] | TGI (SNB-75 CNS) [µM] | GI50 (UACC-62 melanoma) [µM] | TGI (UACC-62 melanoma) [µM] | TGI (SR leukemia) [µM] | GI50 (SR leukemia) [µM]
COc1cc2c(cc1OC)C(=O)/C(=C/c1cccc(OCC(=O)c3ccccc3)c1)C2 | 35.5 | > 100 | 5.44 | > 100 | 9.3 | > 100 | 6.93 | > 100 | 16.2 | 63.9 | 4.24 | > 100 | 23.8 | > 100 | 12 | 37.8 | 8.07 | 90.8 |  | 
CC1=C(C(=O)Nc2c(C)cccc2C)C(c2ccc3c(c2)OCO3)C(C(=O)Nc2c(C)cccc2C)=C(C)N1 |  | 28.2 |  | 27.3 |  |  |  |  |  | 37.7 |  |  |  | 32.7 |  | 63.1 |  | 10.9 | 90.9 | 
COC(=O)C1CC2(CC3=C1CCCC3)OCCO2 (stereo not given) |  | > 100 |  | > 100 |  | > 100 |  |  |  | > 100 |  | > 100 |  | > 100 |  | > 100 |  | > 100 |  | 
Cc1cc2c(c(C#N)c1C)NC(=O)CCC2=O |  | > 100 |  | > 100 |  | > 100 |  |  |  | > 100 |  |  |  | > 100 |  | > 100 |  | > 100 | > 100 | 
O=C(O)CSc1n[nH]c(-c2ccc(O)cc2)n1 |  | > 100 |  | > 100 |  | > 100 |  |  |  | > 100 |  | > 100 |  |  |  | > 100 |  | > 100 | > 100 | 
Nn1c(-c2ccccc2)nc2ccc(Br)cc2c1=O |  | > 100 |  | > 100 |  | > 100 |  |  |  | > 100 |  | > 100 |  | > 100 |  | > 100 |  | > 100 |  | 
Cc1cc(C)nc(NS(=O)(=O)c2ccc(Nc3c4ccccc4nc4c(C(=O)Nc5ccc(S(=O)(=O)N=C(N)N)cc5)ccc(Cl)c34)cc2)n1 |  | > 100 |  | 51.5 |  |  |  |  |  | 45.6 |  | > 100 |  | 80.9 |  | > 100 |  | 36.9 | 65.4 | 
Cn1c2c(c3ccccc31)CCN(CCCCN1CCc3c(n(C)c4ccccc34)C1=O)C2 |  | > 100 |  | > 100 |  | > 100 |  |  |  | > 100 |  | > 100 |  | > 100 |  | > 100 |  | > 100 |  | 
O=C1CC(O)C=C1Nc1ccc(Cl)cc1 (stereo not given) |  | > 100 |  | > 100 |  |  |  |  |  | > 100 |  | > 100 |  | > 100 |  | > 100 |  | 5.14 | 90.9 | 
COc1ccc(-c2nc3sc(C)cn3c2/C=C/C(=O)c2cc(OC)c(OC)c(OC)c2)cc1 | 5.31 | > 100 | 3.8 | > 100 | 3.35 | > 100 | 2.8 | 8.11 | 4.28 | > 100 | 1.51 | 2.91 | 4.07 | > 100 | 4.09 | > 100 | 2.82 | > 100 |  | 
COc1nc(N(C)O)nc(N(C)O)n1 | 3.74 | 33.2 | 0.402 | 3.88 | 0.519 | > 100 |  |  | 1.26 | 9.69 | 1.47 | 23.1 | 2.25 | > 100 | 10 | > 100 | 2.28 | 9.92 | 4.35 | 0.391
Cc1nc2c(nc1C)C(=O)c1cc(O)ccc1C2=O |  | > 100 |  | > 100 |  | > 67.3 |  |  |  | > 100 |  | 29.6 |  | > 100 |  | > 100 |  | 53.5 | > 100 | 
O=C(c1ccccc1)C(C(=O)c1ccccc1)C1(O)C(=O)c2ccccc2C1=O |  | > 100 |  |  |  | > 100 |  |  |  | > 100 |  |  |  | > 100 |  | > 100 |  | > 100 | > 100 | 
Cn1c(=O)nc2n(-c3ccc(Cl)cc3)c3ccc(Cl)cc3nc-2c1=O |  | 54.7 |  | 20.9 |  | 26.5 |  |  |  |  |  | 2.37 |  | 27.6 |  | 10.4 |  | 3.09 | 58 | 
N#CCC(=O)Nc1cccc(C(F)(F)F)c1 |  | > 100 |  | > 100 |  | > 100 |  |  |  | > 100 |  | > 100 |  | > 100 |  | > 100 |  | > 100 | > 100 | 
COc1cc(CCc2ccc(OCCN(C)C)cc2)cc(OC)c1OC |  | > 100 |  | > 100 |  | > 100 |  |  |  | > 100 |  | 64.6 |  | > 100 |  | > 100 |  | > 100 | > 100 | 
Nc1ccn(CCOC(=O)c2ccccc2)c(=O)n1 |  | > 100 |  | > 100 |  | > 100 |  |  |  | > 100 |  | > 100 |  | > 100 |  | > 100 |  | > 100 |  | 
C=C1C(=O)O[C@H]2[C@H]1CC/C(Cn1cc(CNC(=O)Cc3cn(C(=O)c4ccc(Cl)cc4)c4ccc(OC)cc34)nn1)=C\CC[C@@]1(C)O[C@@H]21 | 1.59 | 3.02 | 1.19 | 2.55 | 2.77 | 10.7 | 46.3 | > 100 | 1.57 | 2.96 | 1.77 | 3.28 | 1.62 | 3.21 | 1.54 | 4.02 | 1.63 | 3.18 |  | 
COc1ccc(Cl)cc1Nc1nc(C(F)(F)F)ccc1C(=O)N/N=C/c1c(Cl)cccc1Cl | 8.49 | > 100 | 3.3 | > 100 | 3.26 | > 100 |  |  | 17.9 | > 100 |  |  | 8.78 | > 100 | 11.9 | 42.3 | 7.16 | > 100 |  | 
CCOC(=O)[C@@]1(C)C=C2O[C@@H]3OC4(CCCCC4)O[C@@H]3C2=C2C(O)=CC=C(O)[C@]21C(=O)OC |  | > 68 |  | > 68 |  | > 68 |  |  |  |  |  | > 68 |  | > 68 |  | > 68 |  | > 68 |  | 
O=C(c1ccccc1)C(c1ccccc1)C1(O)C(=O)Nc2c(Cl)cc(Cl)cc21 (stereo not given) |  | 29.8 |  |  |  | > 100 |  |  |  |  |  | 30.7 |  | > 100 |  | 39.7 |  |  |  | 
CCOC(=O)C(=O)Nc1nc2c(s1)C(=O)c1ccccc1C2=O |  | 31.2 |  | 27.7 |  | 29.6 |  |  |  | 31.5 |  | 33.7 |  | 30.1 |  | 30.2 |  | 34.4 | 23.4 | 
